Test [1] deals with Somatostatin receptor type 5 (Homo sapiens, UniProt P35346).
Test [2] deals with Somatostatin receptor type 3 (Homo sapiens, UniProt P32745).
Test [3] concerns the target Somatostatin receptor type 2 (Homo sapiens, UniProt P30874).
Test [4] has as its target Somatostatin receptor type 1 (Homo sapiens, UniProt P30872).
In test [5] the target is Somatostatin receptor type 4 (Homo sapiens, UniProt P31391).

Several values for one entry are separate records, joined by “and”; a condition that tells them apart may be missing. Identical values can stand only once. Numbered stars: 1 amine (or outer) side, 2 acyl side, 3 side chain; on linkers, the order of the positions; unused ones are H or OH. Bridge positions count the residues as written; N and C are the ends. Square brackets hold non-standard residues; d marks the D form. Peptide text beside a SMILES is read from it. * marks the point of attachment. d1Nal = N[C@H](Cc1cccc2ccccc12)C(=O)O; Asu = N[C@@H](CCCCCC(=O)O)C(=O)O; X1 = O=C(C(N[*:1])S[*:3])[*:2]; Ahp = NCCCCCCC(=O)O; Bn = c1ccc(C*)cc1; Mpa = O=C(O)CCS

Sequence of Somatostatin receptor type 2 (P30874 whole entry): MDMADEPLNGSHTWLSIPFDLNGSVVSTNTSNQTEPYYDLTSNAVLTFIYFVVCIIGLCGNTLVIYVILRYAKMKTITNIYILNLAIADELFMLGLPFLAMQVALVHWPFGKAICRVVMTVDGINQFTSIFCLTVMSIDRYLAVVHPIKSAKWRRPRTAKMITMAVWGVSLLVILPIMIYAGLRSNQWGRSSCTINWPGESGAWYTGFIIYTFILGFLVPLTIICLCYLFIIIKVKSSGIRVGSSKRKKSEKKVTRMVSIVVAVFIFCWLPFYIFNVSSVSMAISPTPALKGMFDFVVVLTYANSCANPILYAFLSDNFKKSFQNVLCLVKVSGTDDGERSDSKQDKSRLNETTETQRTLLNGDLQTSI
Sequence of Somatostatin receptor type 4 (P31391 whole entry): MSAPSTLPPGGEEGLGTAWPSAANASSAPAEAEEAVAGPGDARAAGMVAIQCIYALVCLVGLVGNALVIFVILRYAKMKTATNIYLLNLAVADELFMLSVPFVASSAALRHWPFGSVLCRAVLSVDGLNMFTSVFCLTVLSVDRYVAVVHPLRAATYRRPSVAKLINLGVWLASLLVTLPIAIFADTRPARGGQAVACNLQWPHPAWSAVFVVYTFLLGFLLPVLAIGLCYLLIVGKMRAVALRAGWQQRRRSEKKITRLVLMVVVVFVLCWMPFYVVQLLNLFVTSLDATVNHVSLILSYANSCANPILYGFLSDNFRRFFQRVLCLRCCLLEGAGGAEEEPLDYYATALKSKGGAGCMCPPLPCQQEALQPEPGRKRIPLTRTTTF
Sequence of Somatostatin receptor type 5 (P35346 whole entry): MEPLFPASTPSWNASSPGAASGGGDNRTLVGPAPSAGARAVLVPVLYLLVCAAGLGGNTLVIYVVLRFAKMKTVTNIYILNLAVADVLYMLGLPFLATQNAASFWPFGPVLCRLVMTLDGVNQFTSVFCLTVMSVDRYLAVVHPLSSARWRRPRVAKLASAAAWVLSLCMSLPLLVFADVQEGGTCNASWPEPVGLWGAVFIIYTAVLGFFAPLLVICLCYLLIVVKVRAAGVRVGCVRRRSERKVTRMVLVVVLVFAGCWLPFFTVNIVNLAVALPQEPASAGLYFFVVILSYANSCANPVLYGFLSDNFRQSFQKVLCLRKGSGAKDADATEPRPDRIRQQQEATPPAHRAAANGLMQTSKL
Sequence of Somatostatin receptor type 1 (P30872 whole entry): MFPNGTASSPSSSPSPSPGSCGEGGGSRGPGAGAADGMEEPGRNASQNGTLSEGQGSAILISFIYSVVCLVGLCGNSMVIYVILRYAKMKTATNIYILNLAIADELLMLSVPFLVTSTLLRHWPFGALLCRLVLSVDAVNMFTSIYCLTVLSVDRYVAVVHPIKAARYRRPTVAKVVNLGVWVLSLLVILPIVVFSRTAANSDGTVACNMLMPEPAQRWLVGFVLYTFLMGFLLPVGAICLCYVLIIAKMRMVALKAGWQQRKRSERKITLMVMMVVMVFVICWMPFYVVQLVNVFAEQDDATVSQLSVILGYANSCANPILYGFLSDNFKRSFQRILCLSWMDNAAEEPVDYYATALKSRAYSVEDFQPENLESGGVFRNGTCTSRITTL
Sequence of Somatostatin receptor type 3 (P32745 whole entry): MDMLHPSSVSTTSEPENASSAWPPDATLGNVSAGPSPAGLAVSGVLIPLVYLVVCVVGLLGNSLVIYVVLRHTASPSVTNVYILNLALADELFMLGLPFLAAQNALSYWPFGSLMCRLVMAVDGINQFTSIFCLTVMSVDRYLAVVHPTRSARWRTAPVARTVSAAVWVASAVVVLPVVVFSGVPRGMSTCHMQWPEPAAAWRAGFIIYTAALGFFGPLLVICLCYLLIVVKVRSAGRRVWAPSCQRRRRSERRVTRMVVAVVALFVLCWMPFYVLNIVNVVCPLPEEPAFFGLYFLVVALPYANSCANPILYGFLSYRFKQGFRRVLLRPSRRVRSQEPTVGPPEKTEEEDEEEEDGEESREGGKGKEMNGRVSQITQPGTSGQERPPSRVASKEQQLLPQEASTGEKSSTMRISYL

As to `C[C@@H](O)[C@@H]1NC(=O)[C@H](CCCCN)NC(=O)[C@@H](Cc2c[nH]c3ccccc23)NC(=O)[C@H](Cc2ccccc2)NC(=O)[C@@H]2CCCN2C(=O)[C@H](Cc2ccccc2)NC1=O` (cyclo(PF[dW]KTF)), the Ki (commonly a measure of affinity in units of concentration, obtained from inhibition or displacement) in test [1] was 67.6 nM; in test [2], 457 nM and 148 nM; in test [3] it was 3.39 nM; in test [4] it was 4790 nM and 4170 nM; in test [5], 2450 nM and 8710 nM.

For `CC(C)[C@@H]1NC(=O)[C@H](CCCCN)NC(=O)[C@@H](Cc2c[nH]c3ccccc23)NC(=O)[C@H](Cc2ccc(O)cc2)NC(=O)[C@@H](NC(=O)[C@H](N)Cc2ccc3ccccc3c2)CSSC[C@@H](C(=O)N[C@H](C(N)=O)[C@@H](C)O)NC1=O` [3-(2-Naphtyl)-D-Ala-L-Cys(1)-L-Tyr-D-Trp-L-Lys-L-Val-L-Cys(1)-L-Thr-NH2], the Ki in test [2] is 13.8 nM and 9.55 nM; in test [3] it was 0.54 nM and 0.55 nM; in test [4] it was 219 nM.

With `CC(C)[C@H](NC(=O)[C@H](CCCCN)NC(=O)[C@@H](Cc1c[nH]c2ccccc12)NC(=O)[C@H](Cc1ccc(O)cc1)NC(=O)[C@H](Cc1ccccc1)NC(=O)[C@H](N)Cc1ccccc1)C(=O)N[C@@H](Cc1ccccc1)C(=O)N[C@H](Cc1cccc2ccccc12)C(N)=O` [BIM 23056] (H-[dF]FY[dW]KVF[d1Nal]-NH2), the Ki in test [1] is 209 nM; in test [2], 126 nM and 83.2 nM; in test [3] it was 589 nM; in test [4] it was 245 nM and 347 nM; in test [5], 67.6 nM and 339 nM.

On to `CC(C)[C@@H]1NC(=O)[C@H](CCCCN)NC(=O)[C@@H](Cc2c[nH]c3ccccc23)NC(=O)[C@H](Cc2ccc(O)cc2)NC(=O)[C@@H](NC(=O)[C@H](N)Cc2ccccc2)CSSC[C@@H](C(=O)N[C@@H](Cc2c[nH]c3ccccc23)C(N)=O)NC1=O` [CAS_71306] (H-[dF]CY[dW]KVCW-NH2; disulfide 2-7), for which the inhibitory constant (Ki) in test [2] is 42.7 nM and 12.3 nM; in test [3], 0.45 nM and 0.25 nM; in test [4], 83.2 nM and 110 nM; in test [5], 56.2 nM and 275 nM.

With `CC(C)[C@@H]1NC(=O)[C@H](CCCCN)NC(=O)[C@@H](Cc2c[nH]c3ccccc23)NC(=O)[C@H](Cc2ccc(O)cc2)NC(=O)CCSSC(C(=O)N[C@@H](Cc2ccccc2)C(N)=O)NC1=O` (stereo not given in full) [CAS_117580-24-2] ([Mpa]Y[dW]KV[X1]F-NH2; disulfide 1-6), the inhibitory constant (Ki) in test [1] was 2750 nM; in test [2], 67.6 nM and 14.1 nM; in test [3] it was 21.9 nM; in test [4], 8710 nM and > 10000 nM; in test [5], 1050 nM and 2750 nM.

On to `C[C@@H](O)[C@H](NC(=O)[C@H](Cc1ccccc1)NC(=O)[C@@H](NC(=O)[C@H](CCCCN)NC(=O)[C@@H](Cc1c[nH]c2ccccc12)NC(=O)[C@H](Cc1ccccc1)NC(=O)[C@H](Cc1ccccc1)NC(=O)[C@H](N)Cc1ccccc1)[C@@H](C)O)C(N)=O` [CAS_133073-82-2] (H-[dF]FF[dW]KTFT-NH2), for which the inhibition constant Ki in test [1] was 35.5 nM; in test [3] it was 3.16 nM; in test [4] it was 4.27 nM and 2.4 nM; in test [5] it was 2.34 nM and 6.31 nM.

For the compound `C[C@@H](O)[C@@H]1NC(=O)[C@H](Cc2ccc(O)cc2)NC(=O)[C@H]([C@@H](C)O)NC(=O)[C@H](CCCCN)NC(=O)[C@H](Cc2c[nH]c3ccccc23)NC(=O)[C@H](Cc2ccccc2)NC(=O)[C@H](Cc2ccccc2)NC(=O)[C@H](CC(N)=O)NC(=O)[C@H](CCCCN)NC(=O)CCCCC[C@@H](C(=O)O)NC(=O)[C@H](CO)NC1=O` [CGP-23996] (KNFFWKTYTS[Asu]-OH; lactam N-11), the inhibition constant Ki is 214 nM in test [1]; 1.51 nM and 0.52 nM in test [2]; 1.15 nM in test [3]; 4.68 nM and 4.9 nM in test [4]; 1.7 nM and 2.14 nM in test [5].

`C[C@@H](O)[C@@H]1NC(=O)[C@H](CCCCN)NC(=O)[C@H](Cc2c[nH]c3ccccc23)NC(=O)[C@H](Cc2ccccc2)NC(=O)[C@H](Cc2ccccc2)NC(=O)[C@H](CC(N)=O)NC(=O)[C@H](CCCCN)NC(=O)[C@@H](NC(=O)[C@@H]2CCCN2)CSSC[C@@H](C(=O)N[C@@H](CCCCN)C(=O)O)NC(=O)[C@H](CO)NC(=O)[C@H](CO)NC(=O)[C@H](Cc2ccccc2)NC1=O` [Cortistatin(1-14)] (H-PCKNFFWKTFSSCK-OH; disulfide 2-13): the Ki in test [1] was 3.98 nM; in test [2], 0.87 nM and 0.74 nM; in test [3] it was 2.88 nM; in test [5], 1.74 nM and 1.78 nM.

In the case of `CSCC[C@H](NC(=O)[C@H](CCCN=C(N)N)NC(=O)[C@@H](N)CC(=O)O)C(=O)N1CCC[C@H]1C(=O)N[C@H]1CSSC[C@@H](C(=O)N[C@@H](CCCCN)C(=O)O)NC(=O)[C@H](CO)NC(=O)[C@H](CO)NC(=O)[C@H](Cc2ccccc2)NC(=O)[C@H]([C@@H](C)O)NC(=O)[C@H](CCCCN)NC(=O)[C@H](Cc2c[nH]c3ccccc23)NC(=O)[C@H](Cc2ccccc2)NC(=O)[C@H](Cc2ccccc2)NC(=O)[C@H](CC(N)=O)NC(=O)[C@H](CCCN=C(N)N)NC1=O` [Cortistatin], the Ki is 0.29 nM and 0.43 nM in test [1]; 0.37 nM and 0.3 nM in test [2]; 0.85 nM and 0.51 nM in test [3]; 0.25 nM in test [4]; 0.58 nM and 0.28 nM in test [5].

Consider `C[C@@H](O)[C@@H]1NC(=O)[C@H](CCCCN)NC(=O)[C@@H](Cc2c[nH]c3ccccc23)NC(=O)[C@H](Cc2c[nH]c3ccccc23)NC(=O)[C@H](Cc2ccccc2)NC(=O)CCCCCCNC(=O)[C@H](Cc2ccccc2)NC1=O` [L-362855] (cyclo([Ahp]FW[dW]KTF)), for which the Ki in test [2] was 24 nM and 5.62 nM; in test [4], 562 nM and 501 nM; in test [5] it was 49 nM and 174 nM.

As for `C[C@@H](OCc1ccccc1)[C@@H]1NC(=O)[C@H](CCCCN)NC(=O)[C@@H](Cc2c[nH]c3ccccc23)NC(=O)[C@H](Cc2ccccc2)NC(=O)CCCCCCNC1=O` [c[Aha-Phe-D-Trp-Lys-Thr(Bzl)]] (cyclo([Ahp]F[dW]KT(Bn))), the Ki is 955 nM in test [1]; 589 nM and 83.2 nM in test [2]; 1820 nM in test [3]; 95.5 nM and 158 nM in test [4]; 331 nM and 851 nM in test [5].

Regarding `CC(C)[C@@H]1NC(=O)[C@H](CCCCN)NC(=O)[C@@H](Cc2c[nH]c3ccccc23)NC(=O)[C@H](Cc2ccc(O)cc2)NC(=O)[C@H](C)N(C)C(=O)[C@H](Cc2ccccc2)NC1=O` [seglitide], the figures for the Ki in test [1] and in test [4] were 0.72 nM and above 10000 nM, respectively.
